Laboratory results: ChEMBL document CHEMBL1201862, “PubChem BioAssay data set” (2004)
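In this assay, cells in 96-well plates receive the compound at five concentrations for 48 hours. Endpoints are linearly interpolated between the surrounding concentrations. GI50 is the concentration that inhibits growth by half.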 Calls of active or inactive are those of the source. Cut-off read from the data, not from the text of the source: active = GI50 up to about 1.1 µM and inactive = higher.

Legend:
Assay in all cases: DTP human tumour cell line panel, 48 h
[1] = test system: MCF7
[2] = test system: NCI-H522
[3] = test system: HL-60
[4] = test system: NCI-H226
[5] = test system: SF-295
[6] = test system: A498
[7] = test system: Hs-578T
[8] = test system: HCT-116
[9] = test system: IGROV-1
[10] = test system: HT-29
[11] = test system: SK-MEL-2
[12] = test system: SR
[13] = test system: NCI-H23
[14] = test system: TK-10
[15] = test system: SK-MEL-28
[16] = test system: SK-MEL-5
[17] = test system: OVCAR-3
[18] = test system: HCT-15
[19] = test system: UACC-257
[20] = test system: 786-0

Row | Structure (SMILES) | GI50 [1] | GI50 [2] | GI50 [3] | GI50 [4] | GI50 [5] | GI50 [6] | GI50 [7] | GI50 [8] | GI50 [9] | GI50 [10] | GI50 [11] | GI50 [12] | GI50 [13] | GI50 [14] | GI50 [15] | GI50 [16] | GI50 [17] | GI50 [18] [µM] | GI50 [19] | GI50 [20]
1 | C=C(CN(C)C)C(=O)c1ccc(OC2OC(COC(C)=O)C(OC(C)=O)C(OC(C)=O)C2OC(C)=O)cc1 (stereo not given) | 1.77 µM (inactive) | 0.447 µM (active) | 0.456 µM (active) | 7.36 µM (inactive) | 21.3 µM (inactive) | 14.1 µM (inactive) | 19.7 µM (inactive) | 2.25 µM (inactive) | 13.4 µM (inactive) | 2.75 µM (inactive) | 10.3 µM (inactive) | 0.975 µM (active) | 8.89 µM (inactive) | 3.39 µM (inactive) | 2.52 µM (inactive) | 6.37 µM (inactive) | 2.25 µM (inactive) | 3.03 | 2.34 µM (inactive) | 2.24 µM (inactive)
2 | NC(CSC1(c2ccc(Cl)cc2)c2ccccc2-c2ccccc21)C(=O)O (stereo not given) | 17.6 µM (inactive) | 15.4 µM (inactive) | 6.4 µM (inactive) | 27.2 µM (inactive) | 15.3 µM (inactive) | 17.1 µM (inactive) | 18.2 µM (inactive) | 16.6 µM (inactive) | 13.5 µM (inactive) | 37.8 µM (inactive) | 20.9 µM (inactive) | 15.1 µM (inactive) | 19.1 µM (inactive) | 24.8 µM (inactive) | > 100 µM (inactive) | 16.2 µM (inactive) | 17.4 µM (inactive) | 21.6 | 15.9 µM (inactive) | 20.8 µM (inactive)
3 | CCCC[C@H]1C(=O)O[C@H](C)[C@H](NC(=O)c2cccc(NC=O)c2OC)C(=O)O[C@@H](C)[C@@H]1OC(=O)C(C)CC.CCCC[C@H]1C(=O)O[C@H](C)[C@H](NC(=O)c2cccc(NC=O)c2OC)C(=O)O[C@@H](C)[C@@H]1OC(=O)CC(C)C (stereo not given in full) | 12.5 µM (inactive) | 8.51 µM (inactive) | 10.6 µM (inactive) | 12.2 µM (inactive) | 7.45 µM (inactive) | 8.81 µM (inactive) | 17.7 µM (inactive) | 12.1 µM (inactive) | 7.1 µM (inactive) | 9.84 µM (inactive) | 6.07 µM (inactive) | 14.5 µM (inactive) | 7.36 µM (inactive) | 12.9 µM (inactive) | 21.6 µM (inactive) | 12 µM (inactive) | 10.2 µM (inactive) | 12.8 | 12.1 µM (inactive) | 12.1 µM (inactive)
4 | CC(C)OC(=O)C1=C2c3ncccc3C(=O)N2[C@@H](Cl)[C@@H](Cl)[C@@H]1Cl | 84.3 µM (inactive) | 35.6 µM (inactive) | 25.8 µM (inactive) | > 100 µM (inactive) | > 100 µM (inactive) | > 100 µM (inactive) | 81.5 µM (inactive) | > 100 µM (inactive) | 96.4 µM (inactive) | > 100 µM (inactive) | > 100 µM (inactive) | 49.5 µM (inactive) | > 100 µM (inactive) | > 100 µM (inactive) | > 100 µM (inactive) | > 100 µM (inactive) | > 100 µM (inactive) | > 100 | > 100 µM (inactive) | 73.8 µM (inactive)
5 | O=c1c(Cl)c(Cl)c(=O)c2sc3cc(Cl)ccc3[nH]c1=2 | 73.3 µM (inactive) | 16.1 µM (inactive) | 7.73 µM (inactive) | 27.3 µM (inactive) | 70.8 µM (inactive) | > 100 µM (inactive) | 39 µM (inactive) | 33 µM (inactive) | 10.5 µM (inactive) | > 100 µM (inactive) | > 100 µM (inactive) | 7.48 µM (inactive) | 23.3 µM (inactive) | 65.6 µM (inactive) | > 100 µM (inactive) | 25.1 µM (inactive) | 15 µM (inactive) | 42.3 | 15.3 µM (inactive) | > 100 µM (inactive)
6 | Cc1cc(C)c2nc3c(c(C(O)C4CCCCN4)c2c1)CC/C3=C\c1ccc(Cl)cc1 (stereo not given) | 46.6 µM (inactive) | 34 µM (inactive) | 10.7 µM (inactive) | > 100 µM (inactive) | 73.1 µM (inactive) | > 100 µM (inactive) | > 100 µM (inactive) | 32 µM (inactive) | 84.1 µM (inactive) | 30.4 µM (inactive) | 64.9 µM (inactive) | 34.2 µM (inactive) | 85.9 µM (inactive) | > 100 µM (inactive) | > 100 µM (inactive) | 28.9 µM (inactive) | 42.1 µM (inactive) | 58.7 | 32.8 µM (inactive) | 67.8 µM (inactive)
7 | C/C=C(\C)C(=O)OC1C2C(C)C(=O)OC2C(O)C(C)C2C=CC(=O)C21C (stereo not given) | 7.85 µM (inactive) | 2.69 µM (inactive) | 3.24 µM (inactive) | 16.9 µM (inactive) | 14.7 µM (inactive) | 16.1 µM (inactive) | 13.3 µM (inactive) | 9.59 µM (inactive) | 8.69 µM (inactive) | 15.2 µM (inactive) | 17.8 µM (inactive) | 2.18 µM (inactive) | 10.4 µM (inactive) | 12.5 µM (inactive) | 14.1 µM (inactive) | 7.46 µM (inactive) | 10.8 µM (inactive) | 10.6 | 12.7 µM (inactive) | 12.1 µM (inactive)
8 | COc1ccc(CN(Cc2ccc(OC)cc2)C(=O)CC2(O)CCc3ccccc3C2)cc1 (stereo not given) | 41.2 µM (inactive) | 24 µM (inactive) | 17.8 µM (inactive) | 15.1 µM (inactive) | 27.1 µM (inactive) | > 100 µM (inactive) | 40.3 µM (inactive) | 38 µM (inactive) | > 100 µM (inactive) | 37.4 µM (inactive) | 60 µM (inactive) | 16 µM (inactive) | > 100 µM (inactive) | > 100 µM (inactive) | > 100 µM (inactive) | 28.8 µM (inactive) | > 100 µM (inactive) | 54.6 | 42.8 µM (inactive) | > 100 µM (inactive)
9 | COC(=O)CC(=O)Nc1sccc1S(=O)(=O)c1ccccc1 | 65.8 µM (inactive) | 46.9 µM (inactive) | > 100 µM (inactive) | 40.3 µM (inactive) | > 100 µM (inactive) | > 100 µM (inactive) | > 100 µM (inactive) | > 100 µM (inactive) | > 100 µM (inactive) | > 100 µM (inactive) | 66.2 µM (inactive) | > 100 µM (inactive) | > 100 µM (inactive) | 65.9 µM (inactive) | > 100 µM (inactive) | > 100 µM (inactive) | 16.4 µM (inactive) | 27.2 | 67.1 µM (inactive) | 50.5 µM (inactive)
10 | CC(=O)NC1C(O)C(O)C(CO)OC1n1nc(SCc2ccccc2)c(=O)[nH]c1=O (stereo not given) | > 100 µM (inactive) | > 100 µM (inactive) | > 100 µM (inactive) | > 100 µM (inactive) | > 100 µM (inactive) | > 100 µM (inactive) | > 100 µM (inactive) | > 100 µM (inactive) | > 100 µM (inactive) | > 100 µM (inactive) | > 100 µM (inactive) | > 100 µM (inactive) | > 100 µM (inactive) | > 100 µM (inactive) | > 100 µM (inactive) | > 100 µM (inactive) | > 100 µM (inactive) | > 100 | > 100 µM (inactive) | > 100 µM (inactive)
